# Legend:
# [1] = Body weight in IMQ-induced psoriasis model mice; format: in vivo, mouse
# Method: Body weight was determined daily in all mice over the whole period of each study. Oral treatment with either Apremilast (25 mg/kg BID) or SFA002 (fixed dose BID) started with the disease induction on day 0. Etanercept (10 mg/kg Q3D s.c.) served as a technical control. Healthy control and IMQ control group received no placebo treatment.
# [2] = Observations of animal well-being in IMQ-induced psoriasis model mice; format: in vivo, mouse
# [3] = tested on: IL-21; experiment: Multiplex (MSD V-PLEX) cytokine release, InflammaSkin: IL-21; format: cell-based, human; conditions: Example 2; 1 μM Otezla systemic; compared to untreated InflammaSkin
# Method: (§1) A total of 16 biopsies of 15 mm diameter were produced from a single donor. Two NativeSkin® models with 12/15 mm silicon rings were produced from the biopsies according to standard procedures in place, and cultured under cell culture conditions (37° C., 5% CO2, max. humidity) for 7 days with 2 mL of standard NativeSkin® medium renewed every day. Fourteen PSO-InflammaSkin® models with 12/15 mm silicon rings were produced by inducing in situ activation and Th17/Th1 polarization of skin resident T cells with a proprietary cocktail, and cultured under cell culture conditions (37° C., 5% CO2, max. humidity) for 7 days with 2 mL of PSO-InflammaSkin® culture medium renewed every day. […]
# (§2) Human pro-inflammatory cytokines released in the supernatant were quantified using the V-PLEX Human IL-17A Kit (MesoScale Discovery, reference: K151RFD-1) and V-PLEX Human custom Pro-inflammatory. […]
# (§3) Samples were diluted four times for plate 2 and two times for plate 1. Samples and standards were assessed in duplicate. Plates were read on MesoScale Discovery Quickpleax SQ 120 plate reader and values expressed in pg/mL.
# (§4) A statistical analysis was performed. […] First, the distribution's normality of the two compared group was assessed. […] If the two distributions were normal, the homogeneity of variances was assessed using a Fisher test on the variances. […]
# [4] = tested on: TNF-α; experiment: ELISA analysis of TNF-α, InflammaSkin; format: cell-based, human; conditions: Example 2; Otezla-treated InflammaSkin; FIG. 20
# [5] = tested on: K16; experiment: Anti-K16 immunostaining of InflammaSkin models; format: cell-based, human; conditions: Example 1; Day 7; Day 1-6: 1 μM Otezla or SCFA (45 μg/mL Ca-propionate + 1 mM Ca-/Mg-butyrate) systemic, 0.05% Betamethasone topical
# Method: A total of 16 biopsies of 15 mm diameter were produced from a single donor. Two NativeSkin® models with 12/15 mm silicon rings were produced from the biopsies according to standard procedures in place, and cultured under cell culture conditions (37° C., 5% CO2, max. humidity) for 7 days with 2 mL of standard NativeSkin® medium renewed every day. Fourteen PSO-InflammaSkin® models with 12/15 mm silicon rings were produced by inducing in situ activation and Th17/Th1 polarization of skin resident T cells with a proprietary cocktail, and cultured under cell culture conditions (37° C., 5% CO2, max. humidity) for 7 days with 2 mL of PSO-InflammaSkin® culture medium renewed every day.
# From Day 1 to Day 6, models were systemically treated with 1 μM Otezla or Short Chain Fatty Acids (SCFAs), or topically treated with positive control 0.05% Betamethasone
# In these experiments, the SCFAs administered were 45 μg/mL of Ca-propionate and 1 mM mixture of salts (Ca-butyrate and Mg-butyrate).
# At Day 7, supernatants were collected and stored at −80° C. and skin models of all conditions were carefully unmolded. Skin biopsies were re-punched to eliminate the area under the silicon ring, fixed in 10% buffered formalin and processed for paraffin wax embedding. […]
# [6] = tested on: IL-22; experiment: Multiplex (MSD V-PLEX) cytokine release, InflammaSkin: IL-22; format: cell-based, human; conditions: Example 2; Day 7 supernatant; 1 μM Otezla or SCFA systemic, 0.05% Betamethasone topical; vs untreated InflammaSkin
# Method: as §1, §2, §3, §4
compound,measurement,setting,value
"CCOc1cc([C@@H](CS(C)(=O)=O)N2C(=O)c3cccc(NC(C)=O)c3C2=O)ccc1OC [Otezla, Apremilast]",body weight loss,"[1]; Example 4, Apremilast 25 mg/kg BID, SCFA fixed dose BID (120 + 2,146 mg/kg/day), oral",no effect on body weight loss
same,body weight loss,"[1]; Example 7, Apremilast 2.5, 5, 7 mg/kg BID, SCFA (120 + 1,100 mg/kg/day), alone or in combination, vs vehicle-treated IMQ disease controls",no positive influence on body weight loss
same,body weight loss,"[1]; Example 9, Apremilast 25 mg/kg BID, SCFA fixed dose, alone or in combination, vs vehicle-treated IMQ disease controls",no positive influence on body weight loss
same,body weight loss,"[1]; Example 12, Apremilast 12 or 25 mg/kg BID, fixed dose SCFA, alone or in combination, vs vehicle-treated IMQ disease controls",no positive influence on body weight loss
same,observations of animal well-being,"[2]; Example 4, SCFA fixed dose BID (120 + 2,146 mg/kg/day), Apremilast 50 mg/kg/day, oral, study duration","reduced activity, ruffled coat and were slightly hunched"
same,observations of animal well-being,"[2]; Example 7, SCFA (120 + 1,100 mg/kg/day), Apremilast 2.5, 5, 7 mg/kg BID, or combinations, study duration",well tolerated
same,observations of animal well-being,"[2]; Example 8 (written in present tense), SCFA, Apremilast 2.5, 5, 7 mg/kg BID, or combinations",well tolerated
same,observations of animal well-being,"[2]; Example 9, SCFA fixed dose, Apremilast 25 mg/kg BID, or combination, study duration",well tolerated
same,observations of animal well-being,"[2]; Example 10 (written in present tense), SCFA, Apremilast 25 mg/kg BID, or combination",well tolerated
same,observations of animal well-being,"[2]; Example 12, SCFA fixed dose, Apremilast 12 or 25 mg/kg BID, or combinations, study duration",well tolerated
same,increase of secretion of IL-21,[3],about 50%
same,TNFα level (by ELISA),[4],~13 pg/mL
same,K16 expression in the epidermis,[5],decreased the expression of K16 in the epidermis
same,IL-22 secretion,[6],significantly reduced

# — patent US20260216109A1, “TREATMENT OF SKIN DISORDERS WITH SHORT CHAIN FATTY ACIDS” (Temple University-Of The Commonwealth System of Higher …, priority 2023, published 2026)
